According to EP1137645B1, “ALPHA-METHYLBENZYL-CONTAINING THIOUREA INHIBITORS OF HERPES VIRUSES CONTAINING A […] GROUP” (Wyeth, priority 1998, dated 2000):
Converted amounts (≈) assume the structure as drawn. Where two headings read alike, the source gives them in different places.

How the values were obtained:
[1] = system: HCMV recombinant mutant virus whose genome contains the prokaryotic beta-glucuronidase gene; experiment: microbe, parasite or virus in culture; format: cell-based, human cytomegalovirus; conditions: Human betaherpesvirus 5, Fibroblast, read-out: IC50 ug/ml HCMV, HCMV, human foreskin fibroblasts
Procedure, shortened: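 Antiviral IC50 estimated from reduced reporter activity across compound amounts: lysates prepared 96 h after infection were tested with p-nitrophenyl- or methylumbelliferyl-glucuronide. Cells were human foreskin fibroblasts, infected alongside inhibitor with HCMV (e.g. RV145) expressing viral promoter-driven beta-glucuronidase.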

HSV- I = experiment: HSV antiviral (ELISA) assay; format: cell-based; conditions: read-out: IC50 (ug/ml) HSV
Procedure, shortened: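 IC50 from fluorescence versus untreated control in a cell ELISA: anti-glycoprotein D antibody, β-galactosidase-conjugated secondary, 4-methyl umbelliferone read at 365/450 nm. Vero cells (2% FBS DMEM) received compound 30 min pre-infection with HSV-1 at MOI 0.006, fixed ~24 h post-infection.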

VZV strain Ellen = experiment: VZV antiviral (ELISA) assay; format: cell-based; conditions: Human alphaherpesvirus 3, HFF; for inhibition at 10 µg/mL: read-out: % inhibition 10 ug/ml VZV
Procedure, shortened: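 HFF cells infected with VZV Ellen at multiplicity below 0.1 overnight, then mixed infected/uninfected cells seeded with compound in DMEM/2% FBS and incubated three days at 37°C, 5% CO2.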

[2] = read-out: IC50 (ug/ml) VZV, VZV strain Ellen, HFF cells, ELISA

SMILES: CC(NC(=S)Nc1ccc(NC(=O)c2cc3ccccc3cn2)cc1)c1cc2ccccc2o1 (centres unmarked) [Example 985, Isoquinoline-3-carboxylic acid {4-[3-(1-benzofuran-2-yl-ethyl)-thioureido]-phenyl}-amide]
- IC50 [1]: > 10 µg/mL
- IC50 (HSV- I; Vero): > 10 µg/mL
- IC50 (VZV strain Ellen; [2]): 0.035 µg/mL (≈ 0.075 µM)

SMILES: CCCCOc1ccc(NC(=S)Nc2ccc(NC(=O)c3ccccc3F)cc2)cc1Cl [Example 809, N-{4-[3-(4-Butoxy-3-chloro-phenyl)-thioureido]-phenyl}-2-fluoro-benzamide]
- IC50 [1]: > 10 µg/mL
- IC50 (HSV- I; Vero): > 10 µg/mL
- IC50 (VZV strain Ellen; [2]): > 7.5 µg/mL

SMILES: CC(NC(=S)Nc1ccc(NC(=O)c2ccc3ncccc3c2)cc1)c1ccc(F)cc1 (centres unmarked) [Example 990, Quinoline-6-carboxylic acid (4-{3-[1-(4-fluoro-phenyl)-ethyl]-thioureido}-phenyl)-amide]
- IC50 [1]: 4.4 µg/mL (≈ 9.9 µM)
- IC50 (HSV- I; HSV- I, Vero cells, ELISA): 8.9 µg/mL (≈ 20 µM)
- IC50 (VZV strain Ellen; read-out: IC50 (ug/ml) VZV): 3.5 µg/mL (≈ 7.87 µM)

SMILES: COc1cc(OC)c(NC(=S)Nc2ccc(NC(=O)c3ccccc3CO)cc2)cc1Cl [Example 185, N-{4-[3-(5-Chloro-2,4-dimethoxy-phenyl)-thioureido]-phenyl}-2-hydroxy-methyl-benzamide]
- IC50 [1]: 10 µg/mL (≈ 21.2 µM)
- IC50 (HSV- I; HSV- I, Vero cells, ELISA): 3 µg/mL (≈ 6.36 µM)
- inhibition at 10 µg/mL (VZV strain Ellen): 32%
- IC50 (VZV strain Ellen; read-out: IC50 (ug/ml) VZV): > 10 µg/mL

SMILES: CC(NC(=S)Nc1ccc(NC(=O)c2ccnc3ccccc23)cc1)c1ccc(F)cc1 (centres unmarked) [Example 989, Quinoline-4-carboxylic acid (4-{3-[1-(4-fluoro-phenyl)-ethyl]-thioureido}-phenyl)-amide]
- IC50 [1]: 2.9 µg/mL (≈ 6.52 µM)
- IC50 (HSV- I; HSV- I, Vero cells, ELISA): 4.1 µg/mL (≈ 9.22 µM)
- IC50 (VZV strain Ellen; read-out: IC50 (ug/ml) VZV): 3 µg/mL (≈ 6.75 µM)

SMILES: O=C(CN1CCCCC1)Nc1ccc(NC(=S)Nc2ccc(NC(=O)c3ccccc3F)cc2)cc1Cl [Example 364, N-(4-{3-[3-Chloro-4-(2-piperidin-1-yl-acetylamino)-phenyl]-thioureido}-phenyl)-2-fluoro-benzamide]
- IC50 [1]: > 10 µg/mL
- IC50 (HSV- I; HSV- I, Vero cells, ELISA): > 10 µg/mL
- inhibition at 10 µg/mL (VZV strain Ellen): 73%
- IC50 (VZV strain Ellen; read-out: IC50 (ug/ml) VZV): > 15 µg/mL

SMILES: O=C(CN1CCSCC1)Nc1ccc(NC(=S)Nc2ccc(NC(=O)c3ccccc3F)cc2)cc1Cl [Example 407, N-(4-{3-[3-Chloro-4-(2-thiomorpholin-4-yl-acetylamino)-phenyl]-thioureido}-phenyl)-2-fluoro-benzamide]
- IC50 [1]: > 10 µg/mL
- IC50 (HSV- I; HSV- I, Vero cells, ELISA): 4 µg/mL (≈ 7.17 µM)
- inhibition at 10 µg/mL (VZV strain Ellen): 87%
- IC50 (VZV strain Ellen; read-out: IC50 (ug/ml) VZV): 0.7 µg/mL (≈ 1.25 µM)

SMILES: COc1cc(OC)c(NC(=S)Nc2ccc(NC(=O)c3ccccc3F)c(Cl)c2)cc1Cl [Example 278, N-{2-Chloro-4-[3-(5-chloro-2,4-dimethoxy-phenyl)-thioureido]-phenyl}-2-fluoro-benzamide]
- IC50 [1]: > 10 µg/mL
- IC50 (HSV- I; HSV- I, Vero cells, ELISA): > 10 µg/mL
- inhibition at 10 µg/mL (VZV strain Ellen): 15%
- IC50 (VZV strain Ellen; read-out: IC50 (ug/ml) VZV): > 10 µg/mL

SMILES: CC(=O)Oc1ccc(C(=O)Nc2ccc(NC(=S)NC(C)c3ccc(F)cc3)cc2)cc1 (centres unmarked) [Example 757, Acetic acid 4-(4-{3-[1-(4-fluoro-phenyl)-ethyl]-thioureido}-phenylcarbamoyl)-phenyl ester]
- IC50 [1]: > 10 µg/mL
- IC50 (HSV- I; Vero): > 10 µg/mL
- IC50 (VZV strain Ellen; [2]): 1.5 µg/mL (≈ 3.32 µM)

SMILES: CSc1ccc(NC(=S)Nc2ccc(NC(=O)c3c(F)cccc3F)cc2)cc1Cl [Example 848, N-{4-[3-(3-Chloro-4-methylsulfanyl-phenyl)-thioureido]-phenyl}-2,6-difluoro-benzamide]
- IC50 [1]: 0.3 µg/mL (≈ 0.647 µM)
- IC50 (HSV- I; HSV- I, Vero cells, ELISA): 0.085 µg/mL (≈ 0.183 µM)
- inhibition at 10 µg/mL (VZV strain Ellen): 101%
- IC50 (VZV strain Ellen; read-out: IC50 (ug/ml) VZV): 1.3 µg/mL (≈ 2.8 µM)

SMILES: Cc1ccccc1C(=O)Nc1ccc(NC(=S)Nc2ccc(N(C)C)c(Cl)c2)cc1 [Example 346, N-{4-[3-(3-Chloro-4-dimethylamino-phenyl)-thioureido]-phenyl}-2-methyl-benzamide]
- IC50 [1]: 2 µg/mL (≈ 4.56 µM)
- IC50 (HSV- I; HSV- I, Vero cells, ELISA): 6 µg/mL (≈ 13.7 µM)
- inhibition at 10 µg/mL (VZV strain Ellen): 62%
- IC50 (VZV strain Ellen; read-out: IC50 (ug/ml) VZV): > 10 µg/mL

SMILES: COc1cc(OC)c(NC(=S)Nc2ccc(NC(=O)c3cccc4c3OCO4)cc2)cc1Cl [Example 255, Benzo[1,3]dioxole-4-carboxylic acid {4-[3-(5-chloro-2,4-dimethoxy-phenyl)-thioureido]-phenyl}-amide]
- IC50 [1]: > 10 µg/mL
- IC50 (HSV- I; HSV- I, Vero cells, ELISA): 1.2 µg/mL (≈ 2.47 µM)
- inhibition at 10 µg/mL (VZV strain Ellen): 0%
- IC50 (VZV strain Ellen; read-out: IC50 (ug/ml) VZV): > 10 µg/mL

SMILES: COc1cc(OC)c(NC(=S)Nc2ccc(NC(=O)c3c(F)c(F)c(F)c(F)c3F)cc2)cc1Cl [Example 193, N-{4-[3-(5-Chloro-2,4-dimethoxy-phenyl)-thioureido]-phenyl}-2,3,4,5,6-pentafluoro-benzamide]
- IC50 [1]: > 10 µg/mL
- IC50 (HSV- I; HSV- I, Vero cells, ELISA): 1.5 µg/mL (≈ 2.82 µM)
- inhibition at 10 µg/mL (VZV strain Ellen): 106%
- IC50 (VZV strain Ellen; read-out: IC50 (ug/ml) VZV): 3.8 µg/mL (≈ 7.14 µM)
